Test results published in patent US8012975B2, “Antitumoral analogs of ET-743” (Pharma Mar, S.A., priority 2000, dated 2011).
Like-named read-outs stand apart in the source and are kept apart here.

Key:
[1] = system: A549; experiment: Cytotoxic activity (M) panel, NSCL A549; conditions: Homo sapiens, A549, read-out: CYTOTOXIC ACTIVITY (M) A549
[2] = system: MX-1; experiment: Cytotoxic activity (M) panel, Breast MX-1; conditions: Homo sapiens, MX1, read-out: CYTOTOXIC ACTIVITY (M) MX-1
[3] = system: HT-29; experiment: Cytotoxic activity (M) panel, Colon HT-29; conditions: Homo sapiens, HT-29, read-out: CYTOTOXIC ACTIVITY (M) HT-29
[4] = system: 786-O; experiment: Cytotoxic activity (M) panel, Renal 786-O; conditions: Homo sapiens, 786-0, read-out: CYTOTOXIC ACTIVITY (M) 786-O
[5] = system: 5637; experiment: Cytotoxic activity (M) panel, Bladder 5637; conditions: read-out: CYTOTOXIC ACTIVITY (M) 5637
[6] = system: PC3; experiment: Cytotoxic activity (M) panel, Prostate PC3; conditions: Homo sapiens, PC-3, read-out: CYTOTOXIC ACTIVITY (M) PC3
[7] = system: SK-OV-3; experiment: Cytotoxic activity (M) panel, Ovary SK-OV-3; conditions: Homo sapiens, SK-OV-3, read-out: CYTOTOXIC ACTIVITY (M) SK-OV-3
[8] = system: FADU; experiment: Cytotoxic activity (M) panel, Pharnynx FADU; conditions: Homo sapiens, read-out: CYTOTOXIC ACTIVITY (M) FADU
[9] = system: Hs746t; experiment: Cytotoxic activity (M) panel, Gastric Hs746t; conditions: Homo sapiens, read-out: CYTOTOXIC ACTIVITY (M) Hs746t
[10] = system: SK-HEP-1; experiment: Cytotoxic activity (M) panel, Liver SK-HEP-1; conditions: Homo sapiens, SK-HEP1, read-out: CYTOTOXIC ACTIVITY (M) SK-HEP-1
[11] = system: LNCAP; experiment: Cytotoxic activity (M) panel, Prostate LNCAP; conditions: Homo sapiens, read-out: CYTOTOXIC ACTIVITY (M) LNCAP
[12] = system: PANC-1; experiment: Cytotoxic activity (M) panel, Pancreas PANC-1; conditions: Homo sapiens, PANC-1, read-out: CYTOTOXIC ACTIVITY (M) PANC-1
[13] = system: DU-145; experiment: Cytotoxic activity (M) panel, Prostate DU-145; conditions: Homo sapiens, DU-145, read-out: CYTOTOXIC ACTIVITY (M) DU-145
[14] = system: MEL-28; experiment: Cytotoxic activity (M) panel, Melanoma Mel-28; conditions: Homo sapiens, SK-MEL-28, read-out: CYTOTOXIC ACTIVITY (M) Mel-28
[15] = system: SW-694; experiment: Cytotoxic activity (M) panel, Fibrosarcoma SW-694; conditions: read-out: CYTOTOXIC ACTIVITY (M) SW-694
[16] = system: CHSA; experiment: Cytotoxic activity (M) panel, Chondrosarcoma CHSA; conditions: read-out: CYTOTOXIC ACTIVITY (M) CHSA
[17] = system: Molt 3
[18] = system: RAMOS
[19] = system: HL60; experiment: cells; conditions: Homo sapiens, HL-60, read-out: CYTOTOXIC ACTIVITY (M) HL60, leukemias & lymphomas, ALL Promyelocytic leukemia, line HL60
[20] = system: K562; experiment: cells; conditions: Homo sapiens, K562, read-out: CYTOTOXIC ACTIVITY (M) K562
[21] = system: H9; experiment: cells; conditions: Homo sapiens, H9, read-out: CYTOTOXIC ACTIVITY (M) H9, leukemias & lymphomas, Lymphoma T-cell, line H9
[22] = system: U-937; experiment: Cytotoxic activity (M) panel, Lymphoma Histiocytic U-937; conditions: Homo sapiens, U-937, read-out: CYTOTOXIC ACTIVITY (M) U-937
[23] = system: Hut 78; experiment: Cytotoxic activity (M) panel, Lymphoma Cutaneus T cell Hut 78; conditions: Homo sapiens, HuT78, read-out: CYTOTOXIC ACTIVITY (M) Hut 78, leukemias & lymphomas, Lymphoma Cutaneus T cell, line Hut 78
[24] = system: NCI-H187; experiment: Cytotoxic activity (M) panel, SCL NCI-H187; conditions: Homo sapiens, NCI-H187, read-out: CYTOTOXIC ACTIVITY (M) NCI-H187
[25] = system: Y-79; experiment: Cytotoxic activity (M) panel, Retinoblastoma Y-79; conditions: Homo sapiens, Y79, read-out: CYTOTOXIC ACTIVITY (M) Y-79
[26] = system: OSA-FH; experiment: Cytotoxic activity (M) panel, Osteosarcoma OSA-FH; conditions: read-out: CYTOTOXIC ACTIVITY (M) OSA-FH
[27] = system: NCI-H187
[28] = system: H9
[29] = system: RAMOS; experiment: cells; conditions: Homo sapiens, read-out: CYTOTOXIC ACTIVITY (M) RAMOS, leukemias & lymphomas, Lymphoma Burkitts B celll, line RAMOS
[30] = system: Molt 3; experiment: Cytotoxic activity (M) panel, Acute lymphoblastic Molt 3; conditions: Homo sapiens, MOLT-3, read-out: CYTOTOXIC ACTIVITY (M) Molt 3, leukemias & lymphomas, ALL Acute lymphoblastic, line Molt 3
[31] = system: MC116; experiment: Cytotoxic activity (M) panel, Lymphoma undifferentiated MC116; conditions: Homo sapiens, MC116, read-out: CYTOTOXIC ACTIVITY (M) MC116, leukemias & lymphomas, Lymphoma undifferentiated, line MC116

COc1c(C)cc2c(c1O)[C@@H]1C3Cc4c(OC(C)=O)c(C)c5c(c4[C@H](CNC(=O)/C=C/c4cccc(C(F)(F)F)c4)N3[C@@H](O)[C@H](C2)N1C)OCO5 (stereo partly drawn) [drawing 211]
IC50 [1]: 3.25e-09 M
IC50 [2]: 1.65e-06 M
IC50 [3]: 7.84e-10 M
IC50 [4]: 6.58e-12 M
IC50 [5]: 6.02e-10 M
IC50 [6]: 6.65e-09 M
IC50 [7]: 4.39e-11 M
IC50 [8]: 5.41e-11 M
IC50 [9]: 7.9e-12 M
IC50 [10]: 1.79e-12 M
IC50 [11]: 5.45e-10 M
IC50 [12]: 7.22e-11 M
IC50 [13]: 5.73e-10 M
IC50 [14]: 2.6e-10 M
IC50 [15]: 9.91e-10 M
IC50 [16]: 3.24e-10 M

COc1c(C)cc2c(c1O)[C@@H]1C3Cc4c(OC(C)=O)c(C)c5c(c4[C@H](CNC(=O)CCc4ccccc4)N3[C@@H](O)[C@H](C2)N1C)OCO5 (stereo partly drawn) [drawing 221]
IC50 [17]: 0.0155 pM
IC50 [18]: 0.000777 nM
IC50 [19]: 9.38e-09 M
IC50 [20]: 2.33e-07 M
IC50 [21]: 1.99e-11 M
IC50 [22]: 3.06e-11 M
IC50 [23]: 6.21e-11 M

COc1c(C)cc2c(c1O)[C@@H]1C3Cc4c(OC(C)=O)c(C)c5c(c4[C@H](CNC(=O)[C@H](C)NC(=O)C(F)(F)F)N3[C@@H](O)[C@H](C2)N1C)OCO5 (stereo partly drawn) [drawing 212]
IC50 [1]: 7.68e-06 M
IC50 [3]: 1.97e-08 M
IC50 [4]: 1.59e-09 M
IC50 [5]: 3.42e-10 M
IC50 [6]: 2.15e-09 M
IC50 [24]: 9.57e-10 M
IC50 [7]: 1.02e-07 M
IC50 [8]: 1.58e-09 M
IC50 [9]: 2.18e-09 M
IC50 [10]: 6.01e-11 M
IC50 [11]: 2.17e-10 M
IC50 [12]: 4.17e-09 M
IC50 [13]: 1.83e-07 M
IC50 [14]: 3.17e-09 M
IC50 [25]: 7.36e-10 M
IC50 [16]: 6.77e-09 M
IC50 [26]: 1.39e-09 M

CCCCCC(=O)NC[C@H]1c2c(c(OC(C)=O)c(C)c3c2OCO3)CC2[C@H]3c4c(cc(C)c(OC)c4O)C[C@@H]([C@H](O)N21)N3C (stereo partly drawn) [drawing 226]
IC50 [1]: 9.41e-09 M
IC50 [3]: 8.97e-09 M
IC50 [4]: 1.72e-09 M
IC50 [5]: 2.84e-10 M
IC50 [6]: 9.32e-10 M
IC50 [8]: 1.39e-08 M
IC50 [9]: 9.19e-09 M
IC50 [10]: 1.08e-09 M
IC50 [12]: 1e-09 M
IC50 [14]: 1.15e-09 M
IC50 [16]: 2.1e-09 M
IC50 [26]: 1.3e-09 M

CCCC(=O)OC[C@H]1c2c(c(OC(C)=O)c(C)c3c2OCO3)CC2[C@H]3c4c(cc(C)c(OC)c4O)C[C@@H]([C@H](O)N21)N3C (stereo partly drawn) [drawing 236]
IC50 [1]: 8.49e-09 M
IC50 [2]: 4.75e-08 M
IC50 [3]: 1.34e-08 M
IC50 [4]: 1.13e-08 M
IC50 [5]: 3.02e-08 M
IC50 [6]: 6.18e-10 M
IC50 [24]: 2.33e-10 M
IC50 [7]: 3.55e-08 M
IC50 [8]: 2.47e-08 M
IC50 [9]: 7.05e-07 M
IC50 [10]: 6.12e-08 M
IC50 [11]: 3.29e-07 M
IC50 [12]: 1.28e-08 M
IC50 [13]: 1.17e-08 M
IC50 [14]: 1.25e-08 M
IC50 [25]: 2.64e-09 M
IC50 [16]: 2.95e-08 M
IC50 [26]: 5.01e-08 M

COc1c(C)cc2c(c1O)[C@@H]1C3Cc4c(OC(C)=O)c(C)c5c(c4[C@H](COC(=O)CCc4ccccc4)N3[C@@H](O)[C@H](C2)N1C)OCO5 (stereo partly drawn) [drawing 235]
IC50 [1]: 8.22e-06 M
IC50 [3]: 8.99e-09 M
IC50 [4]: 9.23e-10 M
IC50 [5]: 7.88e-10 M
IC50 [6]: 7.71e-10 M
IC50 [8]: 5.4e-11 M
IC50 [9]: 2.95e-08 M
IC50 [10]: 1.29e-09 M
IC50 [12]: 5.68e-10 M
IC50 [14]: 2.23e-08 M
IC50 [25]: 1.03e-08 M
IC50 [15]: 8.53e-06 M
IC50 [16]: 1.55e-05 M
IC50 [26]: 1.29e-09 M

COc1c(C)cc2c(c1O)[C@@H]1C3Cc4c(OC(C)=O)c(C)c5c(c4[C@H](CNC(=O)/C=C/c4ccccc4)N3[C@@H](O)[C@H](C2)N1C)OCO5 (stereo partly drawn) [drawing 213]
IC50 [27]: 0.0778 pM
IC50 [2]: 2.38e-09 M
IC50 [3]: 2.12e-09 M
IC50 [4]: 1.72e-09 M
IC50 [5]: 1.91e-10 M
IC50 [6]: 4.7e-09 M
IC50 [7]: 8.74e-09 M
IC50 [8]: 3.71e-10 M
IC50 [9]: 7.1e-11 M
IC50 [10]: 3.15e-09 M
IC50 [11]: 3.94e-11 M
IC50 [12]: 1.29e-10 M
IC50 [13]: 2.22e-09 M
IC50 [14]: 2.18e-09 M
IC50 [25]: 8.85e-11 M
IC50 [15]: 1.39e-06 M
IC50 [16]: 1.39e-09 M
IC50 [26]: 1.09e-09 M

CCC(=O)N[C@@H](C)C(=O)NC[C@H]1c2c(c(OC(C)=O)c(C)c3c2OCO3)CC2[C@H]3c4c(cc(C)c(OC)c4O)C[C@@H]([C@H](O)N21)N3C (stereo partly drawn) [drawing 232]
CYTOTOXIC ACTIVITY (M) H9 [28]: 2.43 to 08 M
IC50 [19]: 7.36e-09 M
IC50 [20]: 1.18e-08 M
IC50 [29]: 5.01e-09 M
IC50 [30]: 9.86e-10 M
IC50 [31]: 1.49e-09 M
